Measurements as given in patent US20250154138A1, “Small Molecule IL-17A Modulators” (BeiGene, Ltd., priority 2022, published 2025).

Tests used:
[1] = tested on: IL-17-induced GROα secretion from HT-29 cells; assay: GROα release assay in human colorectal adenocarcinoma epithelial cell (HT-29, ELISA); assay type: cell-based; settings: Homo sapiens, HT-29, 48 h, 10 ng/mL IL-17A, highest concentration 10 μM, read-out: Cellular assay HT29 cell/CXCL1 IC50
Summary of the method: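 HT-29 cells were exposed 48 h at 37°C to IL-17A (final 10 ng/mL) preincubated 15 min with compound (4-fold dilutions, top 10 μM). Secreted GROα was quantified by ELISA against a standard curve, and IC50 obtained by four-parameter fitting.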

[2] = biological target: human IL-17A / human IL-17RA (Homo sapiens (Human), UniProt Q16552); assay: Human IL-17A biochemical assay (HTRF, blocking of IL-17A binding to IL-17RA); settings: 0.4 nM IL-17A, 0.3 nM IL-17RA, max compound concentration 10 uM
Summary of the method: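 0.4 nM hIL-17A + cpd (10 uM top, 2.7x, 10 pt), 3 h RT, HEPES pH 7.5 buffer w/ BSA, DTT, Tween 20; + 0.3 nM hIL-17RA 1 h RT; Tb/XL665 Abs 1 h; HTRF 620/665 ratio; 4PL IC50.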

Chain of human IL-17A / human IL-17RA (Q16552 24-155): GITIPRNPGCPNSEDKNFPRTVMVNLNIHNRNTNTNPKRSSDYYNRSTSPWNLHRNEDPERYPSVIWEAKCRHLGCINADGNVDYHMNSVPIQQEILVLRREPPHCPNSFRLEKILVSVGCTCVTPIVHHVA

SMILES | IC50 [1] | IC50 [2]
Cc1nonc1C(=O)N[C@H](C(=O)Nc1ccc2c(c1)CC(C#N)(N1C[C@@H](C(C)C)NC1=O)C2)C(C1CC1)C1CC1 (stereo partly drawn) [Example 266, N-((2S)-1-((2-cyano-2-((R)-4-isopropyl-2-oxoimidazolidin-1-yl)-2,3-dihydro-1H-inden-5-yl)amino)-3,3-dicyclopropyl-1-oxopropan-2-yl)-4-methyl-1,2,5-oxadiazole-3-carboxamide] | 659 nM | 912 nM
Cc1nonc1C(=O)N[C@H](C(=O)Nc1ccc2c(c1)CC(C(=O)Nc1ccccc1C(F)F)(N1C[C@@H](C(C)C)NC1=O)C2)C(C1CC1)C1CC1 (stereo partly drawn) [Example 268, N-((2S)-1,1-dicyclopropyl-3-((2-((2-(difluoromethyl)phenyl)carbamoyl)-2-((R)-4-isopropyl-2-oxoimidazolidin-1-yl)-2,3-dihydro-1H-inden-5-yl)amino)-3-oxopropan-2-yl)-4-methyl-1,2,5-oxadiazole-3-carboxamide] | 248 nM | 88.1 nM
Cc1nonc1C(=O)N[C@H](C(=O)Nc1ccc2c(c1)CC(C(=O)Nc1ccc(Cl)cc1)(N1C[C@@H](C(C)C)NC1=O)C2)C(C1CC1)C1CC1 (stereo partly drawn) [Example 269, N-((2S)-1-((2-((4-chlorophenyl)carbamoyl)-2-((R)-4-isopropyl-2-oxoimidazolidin-1-yl)-2,3-dihydro-1H-inden-5-yl)amino)-3,3-dicyclopropyl-1-oxopropan-2-yl)-4-methyl-1,2,5-oxadiazole-3-carboxamide] | 1070 nM | 416 nM
Cc1nonc1C(=O)N[C@H](C(=O)Nc1ccc2c(c1)CC(C(O)C(F)(F)F)(N1CC(C(F)(F)F)NC1=O)C2)C(C1CC1)C1CC1 (stereo partly drawn) [Example 270, N-((2S)-1,1-dicyclopropyl-3-oxo-3-((2-(2-oxo-4-(trifluoromethyl)imidazolidin-1-yl)-2-(2,2,2-trifluoro-1-hydroxyethyl)-2,3-dihydro-1H-inden-5-yl)amino)propan-2-yl)-4-methyl-1,2,5-oxadiazole-3-carboxamide] | 350 nM | 200 nM
Cc1nonc1C(=O)N[C@H](C(=O)Nc1ccc2c(c1)OC(CN1C[C@@H](C(C)C)NC1=O)C2)C(C1CC1)C1CC1 (stereo partly drawn) [Example 271, N-((2S)-1,1-dicyclopropyl-3-((2-(((R)-4-isopropyl-2-oxoimidazolidin-1-yl)methyl)-2,3-dihydrobenzofuran-6-yl)amino)-3-oxopropan-2-yl)-4-methyl-1,2,5-oxadiazole-3-carboxamide] | 1380 nM | 268 nM
Cc1nonc1C(=O)N[C@H](C(=O)Nc1ccc2c(c1)CC(C(=O)Nc1ccccc1C(F)(F)F)(N1C[C@@H](C(C)C)NC1=O)C2)C(C1CC1)C1CC1 (stereo partly drawn) [Example 272, N-((2S)-1,1-dicyclopropyl-3-((2-((R)-4-isopropyl-2-oxoimidazolidin-1-yl)-2-((2-(trifluoromethyl)phenyl)carbamoyl)-2,3-dihydro-1H-inden-5-yl)amino)-3-oxopropan-2-yl)-4-methyl-1,2,5-oxadiazole-3-carboxamide] | 650 nM | 295 nM
Cc1nonc1C(=O)N[C@H](C(=O)Nc1ccc2c(c1)CC(C(=O)NC1CC1(F)F)(N1C[C@@H](C(C)C)NC1=O)C2)C(C1CC1)C1CC1 (stereo partly drawn) [Example 273, N-((2S)-1,1-dicyclopropyl-3-((2-((2,2-difluorocyclopropyl)carbamoyl)-2-((R)-4-isopropyl-2-oxoimidazolidin-1-yl)-2,3-dihydro-1H-inden-5-yl)amino)-3-oxopropan-2-yl)-4-methyl-1,2,5-oxadiazole-3-carboxamide] | 66.1 nM | 34.7 nM
Cc1nonc1C(=O)N[C@H](C(=O)Nc1ccc2c(c1)CC(C(=O)Nc1cnccc1Cl)(N1C[C@@H](C(C)C)NC1=O)C2)C(C1CC1)C1CC1 (stereo partly drawn) [Example 274, N-((2S)-1-((2-((4-chloropyridin-3-yl)carbamoyl)-2-((R)-4-isopropyl-2-oxoimidazolidin-1-yl)-2,3-dihydro-1H-inden-5-yl)amino)-3,3-dicyclopropyl-1-oxopropan-2-yl)-4-methyl-1,2,5-oxadiazole-3-carboxamide] | 67.6 nM | 42.4 nM
Cc1nonc1C(=O)N[C@H](C(=O)Nc1ccc2c(c1)CC(C(=O)Nc1c(F)cccc1Cl)(N1C[C@@H](C(C)C)NC1=O)C2)C(C1CC1)C1CC1 (stereo partly drawn) [Example 275, N-((2S)-1-((2-((2-chloro-6-fluorophenyl)carbamoyl)-2-((R)-4-isopropyl-2-oxoimidazolidin-1-yl)-2,3-dihydro-1H-inden-5-yl)amino)-3,3-dicyclopropyl-1-oxopropan-2-yl)-4-methyl-1,2,5-oxadiazole-3-carboxamide] | 133 nM | 61.3 nM
Cc1nonc1C(=O)N[C@H](C(=O)Nc1ccc2c(c1)OC(C(C)N1C[C@@H](C(F)(F)F)NC1=O)C2)C(C1CC1)C1CC1 (stereo partly drawn) [Example 276, N-((2S)-1,1-dicyclopropyl-3-oxo-3-((2-(1-((S)-2-oxo-4-(trifluoromethyl)imidazolidin-1-yl)ethyl)-2,3-dihydrobenzofuran-6-yl)amino)propan-2-yl)-4-methyl-1,2,5-oxadiazole-3-carboxamide] | 1460 nM | 573 nM
CC(C1Cc2ccc(NC(=O)[C@@H](NC(=O)c3ccnn3C(C)C)C(C3CC3)C3CC3)cc2O1)N1C[C@@H](C(F)(F)F)NC1=O (stereo partly drawn) [Example 277, N-((2S)-1,1-dicyclopropyl-3-oxo-3-((2-(1-((S)-2-oxo-4-(trifluoromethyl)imidazolidin-1-yl)ethyl)-2,3-dihydrobenzofuran-6-yl)amino)propan-2-yl)-1-isopropyl-1H-pyrazole-5-carboxamide] | 1280 nM | 560 nM
Cc1nonc1C(=O)N[C@H](C(=O)Nc1ccc2c(c1)CC(C(=O)Nc1cc(F)ccc1Cl)(N1C[C@@H](C(C)C)NC1=O)C2)C(C1CC1)C1CC1 (stereo partly drawn) [Example 278, N-((2S)-1-((2-((2-chloro-5-fluorophenyl)carbamoyl)-2-((R)-4-isopropyl-2-oxoimidazolidin-1-yl)-2,3-dihydro-1H-inden-5-yl)amino)-3,3-dicyclopropyl-1-oxopropan-2-yl)-4-methyl-1,2,5-oxadiazole-3-carboxamide] | 122 nM | 333 nM
Cc1nonc1C(=O)N[C@H](C(=O)Nc1ccc2c(c1)CC(N1CC(C(F)(F)F)NC1=O)(C(C)(C)O)C2)C(C1CC1)C1CC1 (stereo partly drawn) [Example 279, N-((2S)-1,1-dicyclopropyl-3-((2-(2-hydroxypropan-2-yl)-2-(2-oxo-4-(trifluoromethyl)imidazolidin-1-yl)-2,3-dihydro-1H-inden-5-yl)amino)-3-oxopropan-2-yl)-4-methyl-1,2,5-oxadiazole-3-carboxamide] | 69.1 nM | 64.8 nM
Cc1nonc1C(=O)N[C@H](C(=O)Nc1ccc2c(c1)CC(C(=O)NC1CCOC1)(N1C[C@@H](C(C)C)NC1=O)C2)C(C1CC1)C1CC1 (stereo partly drawn) [Example 280, N-((2S)-1,1-dicyclopropyl-3-((2-((R)-4-isopropyl-2-oxoimidazolidin-1-yl)-2-((tetrahydrofuran-3-yl)carbamoyl)-2,3-dihydro-1H-inden-5-yl)amino)-3-oxopropan-2-yl)-4-methyl-1,2,5-oxadiazole-3-carboxamide] | 48.1 nM | 17.3 nM
